# Values quoted from earlier work in patent US12318448B2, “Use of TLR agonist and anti-CD47 agent to enhance phagocytosis of cancer cells” (The Board of Trustees of the Leland Stanford Junior …, priority 2015, dated 2025).
# Target: T1, TLR7 (Homo sapiens, UniProt Q9NYK1)
# T1 sequence (Q9NYK1 27-1049): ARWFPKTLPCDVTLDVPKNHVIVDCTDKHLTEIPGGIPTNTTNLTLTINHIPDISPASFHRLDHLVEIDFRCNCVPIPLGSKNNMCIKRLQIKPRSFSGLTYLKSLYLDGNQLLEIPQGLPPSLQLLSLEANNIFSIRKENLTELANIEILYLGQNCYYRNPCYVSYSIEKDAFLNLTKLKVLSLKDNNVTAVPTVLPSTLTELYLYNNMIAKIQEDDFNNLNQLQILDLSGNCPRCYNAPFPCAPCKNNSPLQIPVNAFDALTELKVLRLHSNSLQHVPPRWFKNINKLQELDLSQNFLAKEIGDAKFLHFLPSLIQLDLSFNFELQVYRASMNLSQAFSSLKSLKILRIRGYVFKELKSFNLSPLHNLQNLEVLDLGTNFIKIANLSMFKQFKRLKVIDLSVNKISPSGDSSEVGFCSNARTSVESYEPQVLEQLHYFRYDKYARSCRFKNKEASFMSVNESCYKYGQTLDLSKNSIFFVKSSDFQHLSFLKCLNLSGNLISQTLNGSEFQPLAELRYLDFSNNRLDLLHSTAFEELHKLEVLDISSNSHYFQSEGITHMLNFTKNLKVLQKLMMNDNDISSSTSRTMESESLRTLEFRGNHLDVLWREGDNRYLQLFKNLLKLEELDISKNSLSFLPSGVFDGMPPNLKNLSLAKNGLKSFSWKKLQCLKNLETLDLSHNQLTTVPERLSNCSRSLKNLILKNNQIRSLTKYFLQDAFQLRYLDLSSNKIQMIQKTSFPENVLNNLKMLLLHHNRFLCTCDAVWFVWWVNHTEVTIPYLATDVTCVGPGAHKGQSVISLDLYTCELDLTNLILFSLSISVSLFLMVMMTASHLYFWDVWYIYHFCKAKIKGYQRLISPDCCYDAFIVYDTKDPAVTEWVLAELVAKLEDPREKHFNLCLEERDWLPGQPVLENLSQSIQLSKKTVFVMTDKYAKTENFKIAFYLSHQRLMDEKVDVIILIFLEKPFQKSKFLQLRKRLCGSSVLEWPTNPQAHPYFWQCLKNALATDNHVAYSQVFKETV
# Conditions: administered parenterally as monotherapy; cited from earlier work
smiles,measurement,value
CCc1nc2c(N)nc3ccccc3c2n1CCCCNS(C)(=O)=O [852A],clinical efficacy,modest clinical efficacy with disease stabilization
